According to US9918956B2 (SICHUAN JIUZHANG BIOLOGICAL SCIENCE AND TECHNOLOGY CO., LTD, priority 2013, dated 2018):

Experiments:
[1] = stability of crude drugs; type: physicochemical; conditions: light and heat
[2] = pH of chlorogenic acid solutions
[3] = adjuvant compatibility, high humidity (92.5% relative humidity) test; type: physicochemical; conditions: 25° C.
[4] = pH-degradation reaction rate of chlorogenic acid in buffer solutions
[5] = adjuvant compatibility, high temperature (60° C.) test; type: physicochemical
[6] = adjuvant compatibility, bright light exposure test; type: physicochemical; conditions: light 4500 lx ± 500 lx
From the text: Samples were taken and examined on 0, 5th, 10th days, respectively, and results were depicted in Table 7.

[7] = hygroscopicity of chlorogenic acid crude drug; type: physicochemical
[8] = from pH-degradation reaction rate curve

O=C(/C=C/c1ccc(O)c(O)c1)O[C@@H]1C[C@](O)(C(=O)O)C[C@@H](O)[C@H]1O [chlorogenic acid]
stability of crude drug [1]: sensitive to light and heat | pH value of solution ([2]; […] solution before freeze-drying): about 3.0 | pH value of solution ([2]; concentration 0.03%): about 3.5 | Content ([3]; day 0): 99.51% | Description ([3]; day 0): Off white | Loss on drying ([3]; day 0): 2.31% | Related substances Others 2 ([3]; day 0): 0.154% | Related substances Others 3 ([3]; day 0): 0.211% | Related substances Others 4 ([3]; day 0): 0.035% | Related substances Others Total ([3]; day 0): 0.504% | Content ([3]; day 5): 99.47% | Description ([3]; day 5): Pale yellow | Loss on drying ([3]; day 5): 4.22% | Related substances Others 2 ([3]; day 5): 0.157% | Related substances Others 3 ([3]; day 5): 0.203% | Related substances Others 4 ([3]; day 5): 0.036% | Related substances Others Total ([3]; day 5): 0.518% | Content ([3]; day 10): 99.43% | Description ([3]; day 10): Pale yellow | Loss on drying ([3]; day 10): 4.75% | Related substances Others 2 ([3]; day 10): 0.174% | Related substances Others 3 ([3]; day 10): 0.221% | Related substances Others 4 ([3]; day 10): 0.041% | Related substances Others Total ([3]; day 10): 0.570% | Concentration of chlorogenic acid ([4]; buffer pH 1.5, 0 h): 108.07 µg/mL | Concentration of chlorogenic acid ([4]; buffer pH 1.5, 3 h): 97.95 µg/mL | Concentration of chlorogenic acid ([4]; buffer pH 1.5, 7 h): 92.20 µg/mL | Concentration of chlorogenic acid ([4]; buffer pH 1.5, 11 h): 78.65 µg/mL | Concentration of chlorogenic acid ([4]; buffer pH 1.5, 17 h): 76.80 µg/mL | Concentration of chlorogenic acid ([4]; buffer pH 1.5, 22 h): 68.79 µg/mL | Concentration of chlorogenic acid ([4]; buffer pH 2.0, 0 h): 108.42 µg/mL | Concentration of chlorogenic acid ([4]; buffer pH 2.0, 3 h): 98.91 µg/mL | Concentration of chlorogenic acid ([4]; buffer pH 2.0, 7 h): 97.79 µg/mL | Concentration of chlorogenic acid ([4]; buffer pH 2.0, 11 h): 99.67 µg/mL | Concentration of chlorogenic acid ([4]; buffer pH 2.0, 17 h): 90.77 µg/mL | Concentration of chlorogenic acid ([4]; buffer pH 2.0, 22 h): 88.26 µg/mL | Concentration of chlorogenic acid ([4]; buffer pH 3.0, 0 h): 107.51 µg/mL | Concentration of chlorogenic acid ([4]; buffer pH 3.0, 3 h): 103.02 µg/mL | Concentration of chlorogenic acid ([4]; buffer pH 3.0, 7 h): 101.91 µg/mL | Concentration of chlorogenic acid ([4]; buffer pH 3.0, 11 h): 102.01 µg/mL | Concentration of chlorogenic acid ([4]; buffer pH 3.0, 17 h): 96.77 µg/mL | Concentration of chlorogenic acid ([4]; buffer pH 3.0, 22 h): 95.18 µg/mL | Concentration of chlorogenic acid ([4]; buffer pH 4.0, 0 h): 106.38 µg/mL | Concentration of chlorogenic acid ([4]; buffer pH 4.0, 7 h): 95.78 µg/mL | Concentration of chlorogenic acid ([4]; buffer pH 4.0, 11 h): 91.29 µg/mL | Concentration of chlorogenic acid ([4]; buffer pH 4.0, 17 h): 85.09 µg/mL | Concentration of chlorogenic acid ([4]; buffer pH 4.0, 22 h): 80.21 µg/mL | Concentration of chlorogenic acid ([4]; buffer pH 5.1, 0 h): 105.96 µg/mL | Concentration of chlorogenic acid ([4]; buffer pH 5.1, 3 h): 97.99 µg/mL | Concentration of chlorogenic acid ([4]; buffer pH 5.1, 7 h): 88.87 µg/mL | Concentration of chlorogenic acid ([4]; buffer pH 5.1, 11 h): 81.70 µg/mL | Concentration of chlorogenic acid ([4]; buffer pH 5.1, 17 h): 66.59 µg/mL | Concentration of chlorogenic acid ([4]; buffer pH 5.1, 22 h): 55.83 µg/mL | Concentration of chlorogenic acid ([4]; buffer pH 6.2, 0 h): 105.67 µg/mL | Concentration of chlorogenic acid ([4]; buffer pH 6.2, 3 h): 67.91 µg/mL | Concentration of chlorogenic acid ([4]; buffer pH 6.2, 7 h): 43.91 µg/mL | Concentration of chlorogenic acid ([4]; buffer pH 6.2, 11 h): 33.46 µg/mL | Concentration of chlorogenic acid ([4]; buffer pH 6.2, 17 h): 22.91 µg/mL | Concentration of chlorogenic acid ([4]; buffer pH 6.2, 22 h): 18.48 µg/mL | pH value of most stable solution [4, 8]: 3 | pH values at which aqueous solutions were more stable [4, 8]: 2-4 | lgk ([4]; pH 1.5): −1.7036 | constants of reaction rate k ([4]; pH 1.5, first order degradation): 0.0198 | lgk ([4]; pH 2.0): −2.0947 | constants of reaction rate k ([4]; pH 2.0, first order degradation): 0.0080 | lgk ([4]; pH 3.0): −2.2931 | constants of reaction rate k ([4]; pH 3.0, first order degradation): 0.0051 | lgk ([4]; pH 4.0): −1.9027 | lgk ([4]; pH 5.1): −1.5412 | constants of reaction rate k ([4]; pH 5.1, first order degradation): 0.0288 | lgk ([4]; pH 6.2): −1.1144 | constants of reaction rate k ([4]; pH 6.2, first order degradation): 0.0768 | Content ([5]; day 0): 99.51% | Description ([5]; day 0): Off-white | Loss on drying ([5]; day 0): 2.31% | Related substances Others 2 ([5]; day 0): 0.154% | Related substances Others 3 ([5]; day 0): 0.211% | Related substances Others 4 ([5]; day 0): 0.035% | Related substances Others Total ([5]; day 0): 0.504% | Content ([5]; day 5): 99.36% | Description ([5]; day 5): Dark brown | Loss on drying ([5]; day 5): 2.25% | Related substances Others 2 ([5]; day 5): 0.160% | Related substances Others 3 ([5]; day 5): 0.294% | Related substances Others 4 ([5]; day 5): 0.039% | Related substances Others Total ([5]; day 5): 0.627% | Content ([5]; day 10): 99.31% | Description ([5]; day 10): Dark brown | Loss on drying ([5]; day 10): 2.13% | Related substances Others 1 ([5]; day 10): 0.143% | Related substances Others 2 ([5]; day 10): 0.175% | Related substances Others 3 ([5]; day 10): 0.306% | Related substances Others 4 ([5]; day 10): 0.047% | Related substances Others Total ([5]; day 10): 0.670% | Content ([6]; day 0): 99.51% | Description ([6]; day 0): Off white | Loss on drying ([6]; day 0): 2.31% | Related substances Others 2 ([6]; day 0): 0.154% | Related substances Others 3 ([6]; day 0): 0.211% | Related substances Others 4 ([6]; day 0): 0.035% | Related substances Others Total ([6]; day 0): 0.504% | Content ([6]; day 5): 99.15% | Description ([6]; day 5): Dark brown | Loss on drying ([6]; day 5): 2.38% | Related substances Others 2 ([6]; day 5): 0.483% | Related substances Others 3 ([6]; day 5): 0.223% | Related substances Others 4 ([6]; day 5): 0.037% | Related substances Others Total ([6]; day 5): 0.871% | Content ([6]; day 10): 99.07% | Description ([6]; day 10): Dark brown | Loss on drying ([6]; day 10): 2.54% | Related substances Others 2 ([6]; day 10): 0.498% | Related substances Others 4 ([6]; day 10): 0.044% | hygroscopicity [7]: had hygroscopicity
